Values after ≈ are worked out from the molar mass of the structure shown. Residues, ends and D or L forms follow the SMILES beside them.
What was measured:
S. faecalis ATCC 29212 = format: cell-based, Streptococcus faecalis
Procedure: (§1) The minimal inhibitory concentration (MIC) was determined according to a previously described method ([Chou et al., 2016]). Bacteria were cultured overnight to mid-log phase in MHB at 37°C and then diluted to give final concentrations ranging from 2 × 10^5 to 7 × 10^5 CFU/mL. Then, 50 μL of serial twofold dilutions of the peptides were added to each well in 96-well microtiter plates with a mixed solution containing 0.01% acetic acid and 0.2% bovine serum albumin (BSA, Sigma) was used to dissolve and dilute the peptides. Then, equal amounts of bacterial aliquots were incubated with the above peptide solution for 18–24 h at 37°C. The experiment was performed in triplicate using three replicates for each peptide and each bacterium. The broth was employed as a negative control and the broth with microbial cells was used as a positive control. The lowest concentration of peptide that prevented visible turbidity was defined as the MIC.

B. pyocyaneum ATCC 27853 = format: cell-based, Bacterium pyocyaneum
Procedure: as §1

[1] = test system: total genomic DNA from E. coli; experiment: DNA binding assay (gel retardation); set-up: species or system Escherichia coli; conditions: 1 h
Procedure: Gel retardation experiments were performed as previously described ([Zhu et al., 2015]). The total genomic DNA from E. coli was extracted using the rapid bacterial genomic DNA isolation kit (Sangon Biotech, China). First, increasing concentrations of peptides were mixed with 400 ng of genomic DNA in 20 μL of binding buffer [5% glycerol, 10 mM Tris-HCl (pH 8.0), 1 mM EDTA, 1 mM dithiothreitol, 20 mM KCl, and 50 μg/mL bovine serum albumin] and incubated at 37°C for 1 h. Next, 4 μL of native loading buffer [10% Ficoll 400, 10 mM Tris-HCl (pH 7.5), 50 mM EDTA, 0.25% bromophenol blue, and 0.25% xylene cyanol] was mixed with the samples and a 12 μL aliquot was subjected to 1% agarose gel electrophoresis in 0.5× Tris borate-EDTA buffer (45 mM Tris-borate and 1 mM EDTA, pH 8.0). Finally, gel retardation was visualized using UVP bioimaging systems.

[2] = RP-HPLC retention time as measure of relative hydrophobicity; format: physicochemical; conditions: analytical RP-HPLC; hydrophobicity increases with retention time
Procedure: These peptides' […] identified via matrix-assisted laser desorption/ionization time-of-flight mass spectrometry (MALDI-TOF MS, Linear Scientific Inc., United States), using α-cyano-4-hydroxycinnamic acid as the matrix. […] Quantitative peptides were dissolved in deionized water and stored at -20°C before the assessments. The rest of the peptides were stored as powders at -20°C to prevent peptide degradation. The structures and molecular weights of the peptides were verified by MALDI-TOF MS. […] The relative hydrophobicity of the symmetric-end peptides was reliably reflected by their different HPLC retention times, and the hydrophobicity increased with increasing HPLC retention times ([Lee et al., 2014]; [Zhu et al., 2014]). The HPLC retention times for […]

S. typhimurium ATCC 7731 = format: cell-based, Salmonella entericaserovar Typhimurium
Procedure: as §1

S. aureus ATCC 29213 = format: cell-based, Staphylococcus aureus
Procedure: as §1, with “18-24” for “18–24”, “MIC. The condition sensitivity of peptides was tested in an MIC assay in different environments, including salt sensitivity, thermal sensitivity and different pH values similar to our previous method ([[…] et al., 2008]; [Ma et al., 2012]). […] For the heat resistance experiments, the peptides were incubated at 100°C for 30 min and cooled on ice for 10 min. […] The determination methods for these MIC assays were same as described above. To test the effects of serum on the antimicrobial activities of the peptides, human serum was dissolved in MHB to reach final concentrations of 25 and 50%. The determination methods for these MIC assays were same as described above.” for “MIC.”

S. aureus ATCC 43300 = format: cell-based, Staphylococcus aureus
Procedure: as §1

[3] = test system: Gram-negative and Gram-positive bacterial strains; experiment: Geometric mean of MICs and therapeutic index; format: cell-based
Procedure: The hemolytic activity of the peptides was detected using a previously described modified method ([Wang et al., 2015]). One milliliter of fresh hRBCs was obtained from a healthy donor (Zhihua Wang, Harbin, China) in a polycarbonate tube containing heparin. The collected hRBCs were centrifuged at 1000 × g for 5 min at 4°C and resuspended in PBS buffer (pH 7.2). The hRBCs were washed three times and then incubated with an equal volume of the respective peptide dissolved in PBS for 1 h at 37°C. Then, the hRBC suspension was placed into a 96-well microtiter plater with 50 μL of tested peptide solution at different concentrations and the mixture was incubated for 1 h at 37°C. […] The minimum hemolytic concentrations (MHCs) were defined as the peptide concentrations resulting in 5% hemolysis.
as §1

S. aureus = experiment: Time killing assay; format: cell-based, Staphylococcus aureus; conditions: mean of three independent assays
Procedure: The ability of peptides to kill bacterial cells was further investigated by analyzing the fraction of cell survival upon peptide treatment at various exposure times according to a previously described method ([Wiradharma et al., 2012]). Briefly, E. coli and S. aureus were treated at MIC and 2 × MIC concentrations with peptides. At various time periods (0, 5, 10, 30, 60, 90, 120, and 150 min), microbial suspensions were diluted at three different dilutions and plated on MHA plates. Microbial colonies were formed and counted after 24 h of incubation. The results were presented as the mean data from three independent assays.

Compound: CC[C@H](C)[C@H](N)C(=O)N[C@@H](Cc1c[nH]cn1)C(=O)N[C@@H](CCCCN)C(=O)N[C@@H](Cc1ccccc1)C(=O)N[C@@H](Cc1c[nH]c2ccccc12)C(=O)N[C@@H](CCCNC(=N)N)C(=O)N[C@@H](CS)C(=O)N[C@@H](CCCNC(=N)N)C(=O)N[C@@H](CCCNC(=N)N)C(=O)N[C@@H](CCCNC(=N)N)C(=O)N[C@@H](Cc1ccccc1)C(=O)N[C@@H](CS)C(=O)N[C@@H](CCCNC(=N)N)C(=O)N[C@@H](Cc1c[nH]c2ccccc12)C(=O)N[C@@H](Cc1ccccc1)C(=O)N[C@@H](CCCCN)C(=O)N[C@@H](Cc1c[nH]cn1)C(=O)N[C@H](C(N)=O)[C@@H](C)CC [PQ] (H-IHKFWRCRRRFCRWFKHI-NH2; N-terminus assumed)
- MIC (S. faecalis ATCC 29212): 16 µM (≈ 41.2 µg/mL)
- MIC (B. pyocyaneum ATCC 27853): 8 µM (≈ 20.6 µg/mL)
- Concentration showing DNA-binding ability [1]: > 128 µM
- Retained time (HPLC retention time) [2]: 12.385 min
- MIC (S. typhimurium ATCC 7731): 8 µM (≈ 20.6 µg/mL)
- MIC (S. aureus ATCC 29213; ATCC 29213): 8 µM (≈ 20.6 µg/mL)
- MIC, CaCl2 (S. aureus ATCC 29213; ATCC 29213): 8 µM (≈ 20.6 µg/mL)
- MIC, Control (S. aureus ATCC 29213; ATCC 29213): 8 µM (≈ 20.6 µg/mL)
- MIC, FeCl3 (S. aureus ATCC 29213; ATCC 29213): 8 µM (≈ 20.6 µg/mL)
- MIC, Heat (100°C) (S. aureus ATCC 29213; ATCC 29213): 32 µM (≈ 82.4 µg/mL)
- MIC, KCl (S. aureus ATCC 29213; ATCC 29213): 8 µM (≈ 20.6 µg/mL)
- MIC, MgCl2 (S. aureus ATCC 29213; ATCC 29213): 8 µM (≈ 20.6 µg/mL)
- MIC, NH4Cl (S. aureus ATCC 29213; ATCC 29213): 8 µM (≈ 20.6 µg/mL)
- MIC, NaCl (S. aureus ATCC 29213; ATCC 29213): 8 µM (≈ 20.6 µg/mL)
- MIC, ZnCl2 (S. aureus ATCC 29213; ATCC 29213): 8 µM (≈ 20.6 µg/mL)
- MIC, pH 4.0 (S. aureus ATCC 29213; ATCC 29213, pH 4): 8 μM
- MIC, pH 6.0 (S. aureus ATCC 29213; ATCC 29213, pH 6): 8 μM
- MIC, pH 8.0 (S. aureus ATCC 29213; ATCC 29213, pH 8): 8 μM
- MIC, pH 10.0 (S. aureus ATCC 29213; ATCC 29213, pH 10): 8 μM
- MIC (S. aureus ATCC 43300): 8 µM (≈ 20.6 µg/mL)
- GM (geometric mean of the MIC values) ([3]; all ten tested strains): 9.8 µM
- Therapeutic index ([3]; from MHC and GM): 26.1
- Time to kill S. aureus (S. aureus; peptide at 1 × MIC): 30 min
- Time to kill S. aureus (S. aureus; peptide at 2 × MIC): 30 min
